Where two headings read alike, the source gives them in different places.
How the values were obtained:
[1] = Heme-binding assay by mass spectrometry with collision-induced dissociation of adducts (DV50); settings: energy dissociating 50% of the heme-Fe(III) adduct, NA = no adduct
Description: Hemin (iron-containing porphyrin with chlorine counterion) and the crude ethanolic extract were dissolved in DMSO at 5 mM and 10 mg/mL, respectively. Pure compounds were dissolved in DMSO at the concentration of 10 mM, except for Tween 20, which was dissolved in water at 10 µM. Citric-buffer-saturated octanol (CBSO) was prepared by mixing 5 mL of citric acid, 50 mM and pH 5.2, and 15 mL of N-octanol (anhydrous, ≥99%) and letting it settle at 23 °C for 30 min. The upper phase of the CBSO biphasic system was used. Autosampler 1260 infinity G1367E 1260 Hip ALS (Agilent Technologies, Santa Clara, CA, USA) was used to perform the automatic mixing of aliquots in 384-well plates. The incubation mixture was as follows: Compound 5 µL + heme 5 µL + Tween 5 µL + organic phase of CBSO 85 µL. Samples were injected in infusion mode (direct injection) in a 6530 Accurate-Mass QToF LC–MS instrument (Agilent Technologies) with the following settings: Positive ESI mode and 2 GHz acquisition rate. […] In positive-ion mode, purine ion C5H4N4 [M + H]^+ (m/z 121.050873) and the hexakis (1H,1H,3H-tetrafluoropropoxy)-phosphazene ion C18H18F24N3O6P3 [M+H]^+ (m/z 922.009798) were used as internal lock masses. Full scans were acquired at a resolution of ca 11 000 (at m/z 922).
To obtain heme-Fe(II) from hemin (heme-Fe(III)), glutathione (50 mM in water) was mixed with hemin (5 mM in DMSO) in a ratio of 1:1 and left to incubate for 40 min. This solution was used as the heme solution, as described above.
Dissociation in the collision chamber was caused by increasing collision energies from 0 to 56 eV. The MS–MS targeted mode, an isolation width of m/z 1.3, and the flow injection analysis mode (FIA) were applied. MS–MS parameters were the same as described above. The results were plotted, and a sigmoidal regression curve allowed us to calculate the energy necessary to dissociate 50% of adducts (DV50) using GraphPrism software version 5.00 (San Diego, CA, USA) or a Python script.
Ethanolic extract and hemin (heme-Fe(III)) were mixed and injected using infusion mode for the MS–MS experiment. Three collision energies were used: 30, 50, and 70 eV. The ten most intense ions (top 10) per cycle were selected. MS–MS acquisition parameters were as follows: m/z range of 100–1700, default charge of 1, a minimum intensity of 5000 counts, 3 spectra/s, and isolation width of 1.3 m/z. A list of compounds was generated by the “find by auto MSMS” algorithm of MassHunter software (Qualitative Analysis B.07.00, Agilent Technologies). The “extract average MS–MS spectrum” mode was used to summarize and average the results of the 3 collision energies. Exportation of generated spectra was performed in MGF format using the option “entire data file”. The information generated was uploaded onto the online platform GNPS (global natural product social network). Parameters used for the algorithm were as follows: Precursor ion mass tolerance = 1; fragment ion mass tolerance = 0.3; min pairs cos = 0.7; minimum matched fragment ions = 3; and minimum cluster size = 1. From the data, a network was calculated measuring correlations and was plotted using Cytoscape 3.5.1. […] An alkaloid extract from Cinchona pubescens Vahl (Rubiaceae) and eight antiplasmodial drugs (chloroquine, quinine, amodiaquine, ketoconazole, miconazole, mefloquine, praziquantel, and sulfadoxine) were used as examples of the visualization of adduct fragments by MN. The methodology and conditions were the same as described above.

[2] = tested on: 3D7 Plasmodium falciparum strain; assay: In vitro antiplasmodial activity on Plasmodium falciparum (SYBR Green I); assay type: cell-based; settings: for IC50: chloroquine-sensitive 3D7 strain, 44 h incubation
Description: The strain was maintained in O+ human erythrocytes in an albumin-supplemented RPMI medium under continuous culture using the candle-jar method. […] After 44 h of incubation at 37 °C, the plates were subjected to 3 freeze-thaw cycles to achieve complete hemolysis. The parasite lysis suspension was diluted 1:5 in lysis buffer. In vitro susceptibility is expressed as the concentration inhibiting 50% of the parasite's growth (IC50). Parasite growth was determined using SYBR® Green I, a dye with strong fluorescence enhancement upon contact with DNA. Incorporation of the SYBR® Green I (Fisher Scientific, Illkirch-Graffenstaden, France) in parasite DNA was measured using the Master […]® (Eppendorf, Montesson, France) according to the following program to increase the SYBR® Green I incorporation: 90 °C (1 min) and a decrease to 10 °C over 5 min followed by fluorescence reading. Untreated infected and uninfected erythrocytes were used as controls and chloroquine diphosphate (Sigma, Lezennes, France) was used as a reference drug. IC50 was calculated by IC-estimator online software (www.antimalarial-icestimator.net, accessed on 18 January 2018).

[3] = Cytotoxicity, Alamar Blue; assay type: cell-based, human; settings: human, 72 h treatment
Description: (§1) Cells were seeded in 96-well plates (20,000 cells/mL) and incubated for 24 h, then treated with the drug for 72 h. […] Fluorescent viable cells were monitored after 5 h of incubation at 37 °C at a wavelength of 530 nm for excitation and 590 nm for emission in an FL600 luminescence spectrometer (Biotek, Colmar, France).

[4] = tested on: AB943 primary human dermal fibroblast cell line; assay: Cytotoxicity, Alamar Blue; assay type: cell-based; settings: for Selectivity Index CC50/IC50: CC50 on AB943 fibroblasts / IC50 on 3D7
Description: as §1

Trypanosoma brucei = tested on: Trypanosoma brucei; set-up: method as in PMID 28000515; settings: read-out: IC50 against Trypanosoma brucei; cited from earlier work
[5] = tested on: 3D7 Plasmodium falciparum strain; settings: artemisinin reference value; read-out: 3D7 Sensitive Strain IC50; cited from earlier work
[6] = AB943 primary human dermal fibroblast cells

Compound | DV50 [1] | IC50 ([2]; Plasmodium falciparum) | CC50 at 72 h [3, 6] | Selectivity Index CC50/IC50 [4] | also measured
COc1cc(O)c(C)c(O)c1C(=O)/C=C/c1ccccc1 [Compound 2, 2′, 4′-dihydroxy-6′-methoxy-3′-methylchalcone] | 5.93 eV | 51 µM | > 100 µM | 1.9 | 
COC(=O)C1=CC(O)C(O)(C(=O)/C=C/c2ccccc2)C1 (stereo not drawn) [Compound 10] |  | > 100 µM | > 100 µM | 1 | 
Cc1c(O)c(C)c2c(c1O)C(=O)CC(c1ccccc1)O2 (stereo not drawn) [Compound 6, desmethoxymatteucinol] |  | 71 µM | > 100 µM | 1.4 | 
O=C1C=Cc2ccccc21 [Compound 12, 1H-inden-1-one] |  | > 100 µM | > 100 µM | 1 | 
COc1cc2c(c(O)c1C)C(=O)CC(c1ccccc1)O2 (stereo not drawn) [Compound 4, strobopinin 7-methyl ether] |  | 60 µM | > 100 µM |  | 
COc1cc(OC)c(C(=O)/C=C/c2ccccc2)c(O)c1C [Compound 1, aurentiacin] | 5.15 eV | 2.25 µM | 68.5 µM | 30.4 | 
pinocembrin [Compound 8] | 8.68 eV |  |  |  | IC50 [2]: 78 µM; CC50 ([4]; 72 h treatment, read-out: AB943 Primary Human Fibroblast CC50): > 100 µM
COc1ccc(CCNC(=O)c2ccccc2)cc1 [Compound 11, N-Benzoyltyrarnine methyl ether] | 9.45 eV | > 100 µM | > 100 µM | 1 | antiplasmodial activity (in words) ([2]; 3D7 strain): no antiplasmodial activity
COc1c(C)c(O)c2c(c1C)OC(c1ccccc1)CC2=O (stereo not drawn) [Compound 5, 5-hydroxy-7-methoxy-6,8-dimethyl flavanone] |  | 33.2 µM | 23 µM | <1 | 
COc1cc(OC)c2c(c1C)OC(c1ccccc1)CC2=O (stereo not drawn) [Compound 9, dimethyl cryptostrobin] | 7.68 eV | 85 µM | > 100 µM | 1.2 | 
COc1cc(O)cc(O)c1C(=O)/C=C/c1ccccc1 [Compound 3, cardamomin] | 5.60 eV | 5.5 µM |  | 10.5 | CC50 at 72 h ([3]; read-out: AB943 Primary Human Fibroblast CC50): 58 µM; IC50 (Trypanosoma brucei): 1.8 µM
C[C@@H]1CC[C@H]2[C@@H](C)C(=O)O[C@@H]3O[C@@]4(C)CC[C@@H]1[C@]32OO4 [ART, Artemisinin] |  |  |  |  | IC50 [5]: 0.004 µM
alpinetin [Compound 7] | 8.40 eV |  |  |  | IC50 [2]: 72 µM; CC50 [4]: > 100 µM
CCN(CC)CCCC(C)Nc1ccnc2cc(Cl)ccc12 (stereo not drawn) [CQ, Chloroquine, reference compound] | 14.27 eV |  |  |  | DV50 ([1]; listed as chloroquine): above 14 eV
